Data from US9624247B2, “Pyrazolo-pyrrolidin-4-one derivatives as bet inhibitors and their use in the treatment of disease” (NOVARTIS AG, priority 2013, dated 2017).
pIC50: −log10 of the molar value.

Legend:
BRD4 (His-Brd4(44-477)) = BRD4 (His-Brd4(44-477)) (Homo sapiens (Human), UniProt O60885); test: TR-FRET in-vitro binding assay for BRD4; conditions: acetyl-histone H4 peptide
Protocol: (§1) TR-FRET In-Vitro Binding Assays for BRD2, BRD3, and BRD4:
(§2) All assays were performed in 384 well microtiter plates. Each assay plate contained 8-point serial dilutions for 40 test compounds, plus 16 high- and 16 low controls. Liquid handling and incubation steps were done on an Innovadyne Nanodrop Express equipped with a robotic arm (Thermo CatX, Perkin Elmer/Caliper Twister II) and an incubator (Liconic STX40, Thermo Cytomat 2C450). The assay plates were prepared by addition of 50 nl per well of compound solution in 90% DMSO HummingBird nanodispenser (Zinsser Analytic). The assay was started by stepwise addition of 4.5 μl per well of bromo domain protein (50 mM HEPES, pH 7.5, 0.005% Tween20, 0.1% BSA, 50 mM NaCl, 45 nM His-Brd2(60-472) or 45 nM His-Brd3(20-477) or 45 nM His-Brd4(44-477) all proteins produced in-house) and 4.5 μl per well of peptide solution (50 mM HEPES, pH 7.5, 0.005% Tween20, 0.1% BSA, 50 mM NaCl, 60 nM acetyl-histone H4 (AcK 5, 8, 12, 16) (Biosyntan GmbH)). Reactions were incubated at 30° C. for 35 minutes. […] After 35 minutes incubation at 30° C., plates were measured in a Perkin Elmer EnVision multilabel reader. Concentrations causing 50% inhibition (IC50 values) were determined from percent inhibition values at different compound concentrations by non-linear regression analysis.
(§3) Preparation of Compound Dilutions
(§4) Test compounds were dissolved in DMSO (10 mM) and transferred into 1.4 mL flat bottom or V-shaped Matrix tubes carrying a unique 2D matrix. The stock solutions were stored at […] if not used immediately. For the test procedure the vials were defrosted and identified by a scanner whereby a working sheet was generated that guided the subsequent working steps. Compound dilutions were made in 96 well plates. This format enabled the assay of maximally 40 individual test compounds at 8 concentrations (single points) including 4 reference compounds, if desired (known BET inhibitors from the prior art, for this and other assays of the type disclosed herein). The dilution protocol included the production of “pre-dilution plates”, “master plates” and “assay plates”.
(§5) Pre-dilution plates: 96 polypropylene well plates were used as pre-dilution plates. A total of 4 pre-dilution plates were prepared including 10 test compounds each on the plate positions A1-A10, one standard compound at A11 and one DMSO control at A12. All dilution steps were done on a HamiltonSTAR robot.
(§6) Master plates: 30 μL of individual compound dilutions including standard compound and controls of the 4 “pre-dilution plates” were transferred into a 384 “master plate” including the following concentrations 10000, 3003, 1000, 300, 100, 30, 10 and 3 μM, respectively in 90% of DMSO.
(§7) Assay plates: Identical “assay plates” were then prepared by pipetting 50 nL each of compound dilutions of the “master plates” into 384-well “assay plates” by means of a HummingBird 384-channel dispenser. These plates were used directly for the assay which was performed in a total volume of 13.55 μL. This led to a final compound concentration of 37, 11, 3.7, 1.1, 0.37, 0.11, 0.037 and 0.011 μM and a final DMSO concentration of 0.37% in the assay.

BRD2 (His-Brd2(60-472)) = BRD2 (His-Brd2(60-472)) (Homo sapiens (Human), UniProt P25440); test: TR-FRET in-vitro binding assay for BRD2; conditions: acetyl-histone H4 peptide
BRD2 (His-Brd2(60-472)), sequence (P25440 60-472): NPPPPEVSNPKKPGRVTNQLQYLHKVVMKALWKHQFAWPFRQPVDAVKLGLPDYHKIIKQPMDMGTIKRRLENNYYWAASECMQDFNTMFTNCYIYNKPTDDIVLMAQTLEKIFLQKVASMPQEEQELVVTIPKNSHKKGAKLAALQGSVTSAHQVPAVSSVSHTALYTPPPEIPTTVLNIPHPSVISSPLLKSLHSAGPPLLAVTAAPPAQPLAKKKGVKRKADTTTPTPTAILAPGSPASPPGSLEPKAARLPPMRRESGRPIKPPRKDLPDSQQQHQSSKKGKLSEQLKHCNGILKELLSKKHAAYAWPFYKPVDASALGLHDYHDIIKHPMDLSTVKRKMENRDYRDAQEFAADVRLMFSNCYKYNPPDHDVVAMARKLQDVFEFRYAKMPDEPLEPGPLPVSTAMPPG
Protocol: as §1, §2, §3, §4, §5, §6, §7

BRD3 (His-Brd3(20-477)) = BRD3 (His-Brd3(20-477)) (Homo sapiens (Human), UniProt Q15059); test: TR-FRET in-vitro binding assay for BRD3; conditions: acetyl-histone H4 peptide
BRD3 (His-Brd3(20-477)), sequence (Q15059 20-477): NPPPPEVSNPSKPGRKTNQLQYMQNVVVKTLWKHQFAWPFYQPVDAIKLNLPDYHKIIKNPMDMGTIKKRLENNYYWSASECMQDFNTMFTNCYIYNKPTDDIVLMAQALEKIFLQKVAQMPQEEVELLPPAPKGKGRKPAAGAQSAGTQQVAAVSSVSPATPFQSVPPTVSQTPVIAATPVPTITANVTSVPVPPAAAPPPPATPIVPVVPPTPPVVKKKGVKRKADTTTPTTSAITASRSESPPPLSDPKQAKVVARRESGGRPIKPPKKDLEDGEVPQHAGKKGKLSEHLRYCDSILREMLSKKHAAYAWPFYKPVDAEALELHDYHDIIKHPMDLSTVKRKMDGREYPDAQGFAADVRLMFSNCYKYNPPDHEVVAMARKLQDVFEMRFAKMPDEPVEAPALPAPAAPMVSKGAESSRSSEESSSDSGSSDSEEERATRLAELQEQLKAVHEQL
Protocol: as §1
All assays were performed in 384 well microtiter plates. Each assay plate contained 8-point serial dilutions for 40 test compounds, plus 16 high- and 16 low controls. Liquid handling and incubation steps were done on an Innovadyne Nanodrop Express equipped with a robotic arm (Thermo CatX, Perkin Elmer/Caliper Twister II) and an incubator (Liconic STX40, Thermo Cytomat 2C450). The assay plates were prepared by addition of 50 nl per well of compound solution in 90% DMSO HummingBird nanodispenser (Zinsser Analytic). […] Reactions were incubated at 30° C. for 35 minutes. […] After 35 minutes incubation at 30° C., plates were measured in a Perkin Elmer EnVision multilabel reader.
as §3, §4, §5
(§8) These plates were used directly for the assay which was performed in a total volume of 13.55 μL.

[1] = target: CREBBP bromodomain (His-CREBBP(1081-1197)) (Homo sapiens (Human), UniProt Q92793); test: AlphaScreen in-vitro binding assay for CREBBP; conditions: AlphaScreen, acetyl-histone H4 peptide; read-out: CREBBP IC50
CREBBP bromodomain (His-CREBBP(1081-1197)), sequence (Q92793 1081-1197): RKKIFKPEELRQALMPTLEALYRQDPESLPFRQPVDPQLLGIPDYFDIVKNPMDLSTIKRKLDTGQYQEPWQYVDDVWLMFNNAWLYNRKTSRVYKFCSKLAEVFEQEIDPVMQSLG
Protocol: AlphaScreen In-Vitro Binding Assay for CREBBP
In order to assess bromodomain selectivity, we set up a binding assay using the bromodomain encoded by the CREBBP gene. […] Reactions were incubated at 30° C. for 35 minutes. Subsequently 4.5 μl per well detection mix (50 mM HEPES, pH 7.5, 0.005% Tween20, 0.02% BSA, 150 mM NaCl, 45 μg/ml Ni-chelate acceptor beads, 45 μg/ml streptavidin-donor beads) (Perkin Elmer)) were added. After 60 minutes incubation at room temperature, plates were measured in a Perkin Elmer EnVision multilabel reader. IC50 values were determined from percent inhibition values at different compound concentrations by non-linear regression analysis.
as §3, §4, §5, §8

MV-4-11 cells = test: Cell growth inhibition assay (CellTiter-Glo), MV-4-11; format: cell-based, human; conditions: MV-4-11, 4 days; for GI50: Homo sapiens, MV4-11, 96 h, half-maximal growth inhibition; for MV-4-11 TGI: total growth inhibition
Protocol: (§9) Cell Growth Inhibition Assay
(§10) The human leukemia cell lines MV-4-11, THP-1 and K-562 were employed to characterize the effect of BET inhibitors on cellular proliferation and viability. Cells were obtained from the American Type Culture Collection (ATCC) and cultured at 37° C. in a humidified 5% CO2 incubator in the following media: MV-4-11: DMEM high glucose (Animed #1-26F01-I), 10% FCS (Animed #2-01F26-I), 4 mM L-Glutamine (Animed #5-10K50), 1 mM Sodium Pyruvate (Animed #G03625P), lx Penicillin-Streptomycin (Animed #F12478P); K-562: Iscove's MEM (Animed #1-28F16-I), 10% FCS (Animed #2-01F26-I), 4 mM L-Glutamine (Animed #5-10K50), 1× Penicillin-Streptomycin (Animed #F12478P); THP-1: RPMI-1640 (Animed #1-41F01-I), 10% FCS (Animed #2-01F26-I), 2 mM L-Glutamine (Animed #5-10K50), 10 mM HEPES (Animed #5-31F100), 1 mM Sodium Pyruvate (Animed #G03625P), 1× Penicillin-Streptomycin (Animed #F12478P). The AML lines MV-4-11 and THP-1 are very sensitive to BET inhibitors and show massive cell death upon BET inhibition (Zuber et al., Nature, 478 (2011), 524-8). Compound-mediated suppression of cell proliferation/viability was assessed by quantification of cellular ATP levels using the CellTiter-Glo (CTG) reagent (Promega). Briefly, cells were seeded in 20 μl fresh medium into 384-well plates, followed by addition of 5 μl medium containing compound dilutions at 5-fold their final intended concentration. Dose-response effects were assessed by 3-fold serial dilutions of the test compound, starting at 10 μM. Following incubation of the cells for 4 days at 37° C. and 5% CO2, the effect of inhibitors on cell viability was quantified following addition of 20 μl CTG and luminescence quantification (integration time: 100 ms) as per vendor manual, using a correspondingly equipped Tecan M200 multi-mode platereader (TECAN, Switzerland). For data analysis, the assay background value determined in wells containing medium, but no cells, was subtracted from all data points. To enable differentiation of cytotoxic from cytostatic compounds, the number of viable cells is assessed relative to that observed at the time of compound addition using a separate cell plate (day 0). The effect of a particular test compound concentration on cell proliferation/viability is expressed as percentage of the background- and day 0-corrected luminescence reading obtained for cells treated with vehicle only (DMSO, 0.1% final concentration), which is set as 100%, whereas that luminescence reading for wells containing medium is set as −100%. Compound concentrations leading to half-maximal (IC50) and total growth inhibition (TGI) were determined using standard four parameter curve fitting.

THP-1 cells = test: Cell growth inhibition assay (CellTiter-Glo), THP-1; format: cell-based, human; conditions: THP-1, 4 days; for GI50: Homo sapiens, 96 h, half-maximal growth inhibition; for THP-1 TGI: total growth inhibition
Protocol: as §9, §10

K-562 cells = test: Cell growth inhibition assay (CellTiter-Glo), K-562; format: cell-based, human; conditions: K-562, 4 days; for GI50: Homo sapiens, K562, 96 h, half-maximal growth inhibition; for K-562 TGI: total growth inhibition
Protocol: as §9, §10

Structure (SMILES)	pIC50 (BRD4 (His-Brd4(44-477)))	pIC50 (BRD2 (His-Brd2(60-472)))	pIC50 (BRD3 (His-Brd3(20-477)))	pIC50 [1]	GI50 (MV-4-11 cells)	MV-4-11 TGI (MV-4-11 cells)	GI50 (THP-1 cells)	THP-1 TGI (THP-1 cells)	GI50 (K-562 cells)	K-562 TGI (K-562 cells)
Cc1cc(N2C(=O)c3c(C4CC4)nn(C)c3[C@H]2c2ccc(Cl)cc2)nn2c(C)nnc12 [Example 24, (R)-6-(4-chlorophenyl)-3-cyclopropyl-5-(3,8-dimethyl-[1,2,4]triazolo[4,3-b]pyridazin-6-yl)-1-methyl-5,6-dihydropyrrolo[3,4-c]pyrazol-4(1H)-one]	> 7.96	> 7.96	> 7.96	4.72	0.643 nM	1.57 nM	1.88 nM	4.91 nM	10.4 nM	>10000 nM
Cc1cc(N2C(=O)c3c(C4CC4)nn(-c4ccnn4C)c3C2c2ccc(Cl)cc2)nn2c(C)nnc12 (stereo not drawn) [Example 25, 6-(4-chlorophenyl)-3-cyclopropyl-5-(3,8-dimethyl-[1,2,4]triazolo[4,3-b]pyridazin-6-yl)-1-(1-methyl-1H-pyrazol-5-yl)-5,6-dihydropyrrolo[3,4-c]pyrazol-4(1H)-one]	7.60	7.49	7.62	< 4.43	6.65 nM	15.9 nM	20.1 nM	44.4 nM	91.6 nM	>10000 nM
Cc1nnc2c(N)cc(N3C(=O)c4c(C5CC5)nn(C)c4C3c3ccc(Cl)cc3)cn12 (stereo not drawn) [Example 28, 5-(8-amino-3-methyl-[1,2,4]triazolo[4,3-a]pyridin-6-yl)-6-(4-chlorophenyl)-3-cyclopropyl-1-methyl-5,6-dihydropyrrolo[3,4-c]pyrazol-4(1H)-one]	7.68	7.39	7.47	5.43	1.56 nM	3.515 nM	2.83 nM	9.04 nM	9.66 nM	>10000 nM
